# From patent US20250051338A1, “TYK2 DEGRADERS AND USES THEREOF” (Kymera Therapeutics, Inc., priority 2021, published 2025)
# Legend:
# Assay type in all cases: cell-based
# TYK2 [1] = biological target: T1, TYK2 (Homo sapiens, UniProt P29597); assay: TYK2 degradation MSD assay in human PBMC cells; design: endogenous in cells; host or cells: human PBMC; conditions: 4 to 24 hours incubation, read-out: TYK2 MSD DC50 rating in human PBMC
# Procedure, shortened: (§1)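 TYK2 levels in lysed cells, detected via antibody capture and SULFO-TAG electrochemiluminescence, were compared across a nine-point threefold compound dilution (highest 1 to 10 μM) after 4–24 h culture at 37° C under 5% CO2. Four-parameter nonlinear regression of the dose response yielded DC50.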
# TYK2 [2] = biological target: T1, TYK2; assay: TYK2 degradation MSD assay in EBV-B cells; design: endogenous in cells; host or cells: EBV-B cells; conditions: 4 to 24 hours incubation, read-out: TYK2 MSD DC50 rating in EBV-B
# Procedure, shortened: as §1
# TYK2 [3] = biological target: T1, TYK2; assay: TYK2 degradation MSD assay in OCI-LY10 cells; design: endogenous in cells; host or cells: EBV-B cells; conditions: 4 to 24 hours incubation, read-out: TYK2 MSD DC50 rating in OCI-LY10
# Procedure, shortened: as §1
# T1 sequence (P29597 whole entry): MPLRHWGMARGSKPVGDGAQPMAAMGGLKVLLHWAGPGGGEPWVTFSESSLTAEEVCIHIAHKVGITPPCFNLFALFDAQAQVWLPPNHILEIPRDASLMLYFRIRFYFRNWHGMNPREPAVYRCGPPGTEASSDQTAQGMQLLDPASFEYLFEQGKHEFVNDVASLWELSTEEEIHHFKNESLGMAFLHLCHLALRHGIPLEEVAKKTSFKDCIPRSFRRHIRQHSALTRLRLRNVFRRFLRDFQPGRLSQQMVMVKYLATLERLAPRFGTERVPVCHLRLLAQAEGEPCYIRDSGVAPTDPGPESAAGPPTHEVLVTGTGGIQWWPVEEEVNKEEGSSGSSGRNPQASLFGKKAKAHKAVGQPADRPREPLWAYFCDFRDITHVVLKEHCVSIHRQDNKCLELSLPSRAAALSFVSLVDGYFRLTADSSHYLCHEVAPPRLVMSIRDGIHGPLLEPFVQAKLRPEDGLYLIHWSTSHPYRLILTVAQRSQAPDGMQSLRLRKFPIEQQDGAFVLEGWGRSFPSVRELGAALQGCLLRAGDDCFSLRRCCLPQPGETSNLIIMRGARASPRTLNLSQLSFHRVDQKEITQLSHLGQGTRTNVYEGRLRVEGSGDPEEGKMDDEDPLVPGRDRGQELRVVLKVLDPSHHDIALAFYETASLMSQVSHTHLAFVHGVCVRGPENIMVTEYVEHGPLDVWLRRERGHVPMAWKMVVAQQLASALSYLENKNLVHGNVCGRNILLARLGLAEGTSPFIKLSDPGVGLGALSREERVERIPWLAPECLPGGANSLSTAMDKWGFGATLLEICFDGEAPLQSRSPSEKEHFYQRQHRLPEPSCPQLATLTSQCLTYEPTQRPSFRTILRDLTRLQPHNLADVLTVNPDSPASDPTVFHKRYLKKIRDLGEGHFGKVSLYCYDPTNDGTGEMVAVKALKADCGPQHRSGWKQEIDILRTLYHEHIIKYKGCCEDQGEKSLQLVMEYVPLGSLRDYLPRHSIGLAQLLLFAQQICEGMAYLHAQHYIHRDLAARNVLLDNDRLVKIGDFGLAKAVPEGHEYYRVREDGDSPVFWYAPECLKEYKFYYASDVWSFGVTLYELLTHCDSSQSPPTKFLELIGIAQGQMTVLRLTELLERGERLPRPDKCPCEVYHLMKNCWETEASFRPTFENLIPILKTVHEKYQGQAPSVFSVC
Structure (SMILES),DC50 (TYK2 [1]),DC50 (TYK2 [2]),DC50 (TYK2 [3])
CNc1cc(N2CCc3c(-c4cc(N5CCN(c6cccc7c6n(C)c(=O)n7C6CCC(=O)NC6=O)CC5)ccn4)cccc32)nn2c(C(=O)N[C@@H]3C[C@@H]3F)cnc12 (stereo partly drawn) [Example K653],> 100 nM,> 100 nM,> 100 nM
CNc1cc(Nc2cccc(-c3ccc(C(=O)N4CCN([C@H]5CC[C@H](c6ccc(-c7ccc8c(c7)n(C)c(=O)n8C7CCC(=O)NC7=O)cc6)CC5)CC4)cn3)c2)nn2c(C(=O)N[C@@H]3C[C@@H]3F)cnc12 (stereo partly drawn) [Example K632],> 100 nM,> 100 nM,< 1 nM
CNC(=O)c1cnc(NC(=O)NCCCCCCc2cccc3c2n(C)c(=O)n3C2CCC(=O)NC2=O)cc1Nc1cccc(-c2ncc(F)cn2)c1OC (stereo not drawn) [Example K106],> 100 nM,> 100 nM,> 100 nM
CNc1cc(N2CCc3c(-c4cc(CN5CCN(c6ccc7c(c6)n(C)c(=O)n7C6CCC(=O)NC6=O)CC5)ccn4)cccc32)nn2c(C(=O)NC3CC3F)cnc12 (stereo not drawn) [Example K657],> 100 nM,> 100 nM,< 1 nM
CNc1cc(Nc2cccn(-c3ccc(C(=O)N4CCC(CN(C)C5CCN(c6ccc7c(c6)n(C)c(=O)n7C6CCC(=O)NC6=O)CC5)C4)cn3)c2=O)nn2c(C(=O)N[C@@H]3C[C@@H]3F)cnc12 (stereo partly drawn) [Example K445],> 100 nM,> 100 nM,< 1 nM
CNc1cc(-c2ccc(C3CCN(CC4CCN(c5ccc(-c6ccc7c(c6)n(C)c(=O)n7C6CCC(=O)NC6=O)cc5)CC4)CC3)cc2)c2n3c(cnc13)C(=O)N(C1CC1)C2 (stereo not drawn) [Example K550],> 100 nM,> 100 nM,> 100 nM
CNc1cc(Nc2cccc(CN3CC4(C3)CN(c3ncc(C#Cc5ccc6c(c5)n(C)c(=O)n6C5CCC(=O)NC5=O)cn3)C4)c2)nn2c(C(=O)NC3CC3)cnc12 (stereo not drawn) [Example K604],> 100 nM,> 100 nM,< 1 nM
CNc1cc(Nc2cccc(-c3ccc(CN4CCC(c5ccc(-c6ccc7c(c6)n(C)c(=O)n7C6CCC(=O)NC6=O)cc5)CC4)cn3)c2)nn2c(C(=O)NC3CC3F)cnc12 (stereo not drawn) [Example K413],> 100 nM,> 100 nM,< 1 nM
CNc1cc(N2CCc3c(-c4ccc(CN5CCN(c6ccc(-c7cccc8c(N9CCC(=O)NC9=O)cncc78)cc6)CC5)cn4)cccc32)nn2c(C(=O)N[C@@H]3C[C@@H]3F)cnc12 (racemic) [Example K546],> 100 nM,> 100 nM,> 100 nM
CNc1cc(Nc2cccc(-c3ccc(CN4CC5(C4)CN(c4ccc(-c6ccc7c(c6)n(C)c(=O)n7C6CCC(=O)NC6=O)cc4)C5)cn3)c2)nn2c(C(=O)N[C@@H]3C[C@@H]3F)cnc12 (stereo partly drawn) [Example K522],> 100 nM,> 100 nM,< 1 nM
CNc1cc(Nc2cccn(-c3ccc(C(=O)N4CCN(CC5CCN(c6ccc(-c7ccc8c(c7)n(C)c(=O)n8C7CCC(=O)NC7=O)cc6)CC5)CC4)cn3)c2=O)nn2c(C(=O)N[C@@H]3C[C@@H]3F)cnc12 (stereo partly drawn) [Example K374],> 100 nM,< 1 nM,> 100 nM
CNc1cc(N2CCc3c(-c4ccc(CN5CC6(C5)CN(c5ccc(-c7ccc8c(c7)n(C)c(=O)n8C7CCC(=O)NC7=O)cc5)C6)cn4)cccc32)nn2c(C(=O)N[C@@H]3C[C@@H]3F)cnc12 (stereo partly drawn) [Example K574],> 100 nM,> 100 nM,1 to 10 nM
CNc1cc(Nc2cccn(-c3ccc(C(=O)N(C)CCCOC4CCN(c5ccc6c(c5)n(C)c(=O)n6C5CCC(=O)NC5=O)CC4)cn3)c2=O)nn2c(C(=O)N[C@@H]3C[C@@H]3F)cnc12 (stereo partly drawn) [Example K438],> 100 nM,> 100 nM,1 to 10 nM
CNc1cc(Nc2cccc(-c3ccc(CN4CCN([C@H]5CC[C@H](c6ccc7c(c6)n(C)c(=O)n7C6CCC(=O)NC6=O)CC5)CC4)cn3)c2OC)nn2c(C(=O)N[C@@H]3C[C@@H]3F)cnc12 (mixture of isomers) [Example K553],> 100 nM,< 1 nM,< 1 nM
CNc1cc(N2CCc3c(-c4cc(CN5CCN(c6ccc(-c7ccc8c(c7)n(C)c(=O)n8C7CCC(=O)NC7=O)cc6)CC5)ccn4)cccc32)nn2c(C(=O)N[C@@H]3C[C@@H]3F)cnc12 (stereo partly drawn) [Example K658],> 100 nM,> 100 nM,1 to 10 nM
CNc1cc(Nc2cccn(-c3ccc(CN4CCN([C@H]5CC[C@H](c6ccc(-c7ccc8c(c7)n(C)c(=O)n8C7CCC(=O)NC7=O)cc6)CC5)CC4)cn3)c2=O)nn2c(C(=O)N[C@@H]3C[C@@H]3F)cnc12 (stereo partly drawn) [Example K454],> 100 nM,< 1 nM,< 1 nM
CNc1cc(Nc2cccn(-c3ccc(C(=O)N4CCN(CC5CC(c6ccc(-c7ccc8c(c7)n(C)c(=O)n8C7CCC(=O)NC7=O)cc6)C5)CC4)cn3)c2=O)nn2c(C(=O)N[C@@H]3C[C@@H]3F)cnc12 (stereo partly drawn) [Example K373],> 100 nM,< 1 nM,> 100 nM
CNc1cc(-c2ccc(N3CCC(CN4CCN(c5ccc(-c6ccc7c(c6)n(C)c(=O)n7C6CCC(=O)NC6=O)cc5)CC4)CC3)cc2)nn2c(C(=O)N[C@@H]3C[C@@H]3F)cnc12 (mixture of isomers) [Example K545],> 100 nM,> 100 nM,> 100 nM

# Further lines, results first:
DC50 (TYK2 [1]),DC50 (TYK2 [2]),DC50 (TYK2 [3]),Structure (SMILES)
> 100 nM,> 100 nM,> 100 nM,CNc1cc(-c2ccc(C(=O)NCCCCCCCCc3cccc4c3n(C)c(=O)n4C3CCC(=O)NC3=O)cc2)nn2c(C(=O)N[C@@H]3C[C@@H]3F)cnc12 (stereo partly drawn) [Example K303]
> 100 nM,> 100 nM,1 to 10 nM,CNc1cc(Nc2cccc(-c3ccc(CN4CCN(c5ccc(-c6cccc7c6n(C)c(=O)n7C6CCC(=O)NC6=O)cc5)CC4)cn3)c2OC)nn2c(C(=O)N[C@@H]3C[C@@H]3F)cnc12 (stereo partly drawn) [Example K488]
> 100 nM,> 100 nM,> 100 nM,CNC(=O)c1cnc(Nc2ccc(C(=O)NCCCCc3ccc4c(c3)n(C)c(=O)n4C3CCC(=O)NC3=O)cn2)cc1Nc1ccccc1OC (stereo not drawn) [Example K706]
> 100 nM,> 100 nM,> 100 nM,CNc1cc(-c2cnn(C3CCN(C(=O)NCCCCc4ccc5c(c4)n(C)c(=O)n5C4CCC(=O)NC4=O)CC3)c2)nn2c(C(=O)N[C@@H]3C[C@@H]3F)cnc12 (stereo partly drawn) [Example K294]
> 100 nM,> 100 nM,< 1 nM,CNc1cc(Nc2cccc(-c3ccc(CN4CCC(N5CC(c6cccc7c6n(C)c(=O)n7C6CCC(=O)NC6=O)C5)CC4)cn3)c2)nn2c(C(=O)N[C@@H]3C[C@@H]3F)cnc12 (stereo partly drawn) [Example K414]
< 1 nM,< 1 nM,< 1 nM,CNc1cc(Nc2cccn(-c3ccc(C(=O)N4CC5(CCN(c6cccc7c6n(C)c(=O)n7C6CCC(=O)NC6=O)CC5)C4)cn3)c2=O)nn2c(C(=O)N[C@@H]3C[C@@H]3F)cnc12 (stereo partly drawn) [Example K389]
> 100 nM,> 100 nM,> 100 nM,Cn1c(=O)n(C2CCC(=O)NC2=O)c2ccc(C3CN(C4CCN(Cc5ccc(-c6cccc(Nc7ccc8ncc(C(=O)NC9CC9)n8n7)c6)nc5)CC4)C3)cc21 (stereo not drawn) [Example K405]
> 100 nM,> 100 nM,> 100 nM,CNC(=O)c1cnc(Nc2ccc(CN3CCCC(c4ccc5c(c4)n(C)c(=O)n5C4CCC(=O)NC4=O)C3)cn2)cc1Nc1cccc(-c2ncc(F)cn2)c1OC (stereo not drawn) [Example K168]
< 1 nM,< 1 nM,< 1 nM,CNc1cc(Nc2cccn(-c3ccc(C(=O)N4CCN([C@H]5CC[C@H](c6ccc(-c7ccc8c(c7)n(C)c(=O)n8C7CCC(=O)NC7=O)cc6)CC5)CC4)cn3)c2=O)nn2c(C(=O)N[C@@H]3C[C@@H]3F)cnc12 (stereo partly drawn) [Example K380]
> 100 nM,> 100 nM,> 100 nM,Cn1c(=O)n(C2CCC(=O)NC2=O)c2ccc(CCCCNC(=O)c3ccc(-c4ccc5ncc(C(=O)N[C@@H]6C[C@@H]6F)n5n4)cc3)cc21 (stereo partly drawn) [Example K324]
> 100 nM,> 100 nM,> 100 nM,CNc1cc(Nc2cccc(CN3CC4(C3)CN(c3ccc(-c5ccc6c(c5)n(C)c(=O)n6C5CCC(=O)NC5=O)cc3)C4)c2OC)nn2c(C(=O)N[C@@H]3C[C@@H]3F)cnc12 (stereo partly drawn) [Example K610]
> 100 nM,> 100 nM,> 100 nM,CNc1cc(Nc2cccn(-c3cccc(C(=O)NCCCCc4cccc5c4n(C)c(=O)n5C4CCC(=O)NC4=O)c3)c2=O)nn2c(C(=O)N[C@@H]3C[C@@H]3F)cnc12 (stereo partly drawn) [Example K220]
< 1 nM,> 100 nM,> 100 nM,CNC(=O)c1cnc(Nc2cc(C(=O)NCCCCCCc3ccc4c(c3)n(C)c(=O)n4C3CCC(=O)NC3=O)ccn2)cc1Nc1cccc(-c2ncc(F)cn2)c1OC (stereo not drawn) [Example K127]
1 to 10 nM,> 100 nM,> 100 nM,CNc1cc(-c2cnn(C3CCN(C(=O)NCCCCCCCCc4cccc5c4n(C)c(=O)n5C4CCC(=O)NC4=O)CC3)c2)nn2c(C(=O)N[C@@H]3C[C@@H]3F)cnc12 (stereo partly drawn) [Example K313]
1 to 10 nM,> 100 nM,> 100 nM,CNc1cc(Nc2cccc(C(=O)NCCCCCCCCc3cccc4c3n(C)c(=O)n4C3CCC(=O)NC3=O)c2)nn2c(C(=O)N[C@@H]3C[C@@H]3F)cnc12 (stereo partly drawn) [Example K254]
< 1 nM,< 1 nM,> 100 nM,CNC(=O)c1cnc(Nc2ccc(CN3CCN(CC4CCN(c5ccc(-c6ccc7c(c6)n(C)c(=O)n7C6CCC(=O)NC6=O)cc5)CC4)CC3)cn2)cc1Nc1cccc(-c2ncc(F)cn2)c1OC (stereo not drawn) [Example K139]
